Experimental data from patent US20230160909A1, “NOVEL ION CONDUCTING CHANNEL FUSION SUBUNITS AND METHODS OF USE THEREOF” (UNIVERSITE DE BORDEAUX, priority 2020, published 2023).

Columns and labels:
Type in all cases: cell-based
[1] = target: T1, TRPV1 channel (Homo sapiens, UniProt Q8NER1); experiment: hTRPV1-nLuc-Calflux-YFP (or mNeonGreen) BRET probe in HEK293T cells; details: TRPV1-nLuc-Calflux-YFP/mNeonGreen probe
T1 construct: expressed in transfected cells; host or cells: HEK293T

[2] = target: T2, hP2X2 (Homo sapiens, UniProt Q9UBL9); experiment: hP2X2-NeonGreen-Calflux-nLuc BRET probe in HEK293T cells; details: read-out: EC50 of activation of hP2X2 probe
T2 construct: expressed in transfected cells; host or cells: HEK293T
T2 sequence (Q9UBL9 1-471): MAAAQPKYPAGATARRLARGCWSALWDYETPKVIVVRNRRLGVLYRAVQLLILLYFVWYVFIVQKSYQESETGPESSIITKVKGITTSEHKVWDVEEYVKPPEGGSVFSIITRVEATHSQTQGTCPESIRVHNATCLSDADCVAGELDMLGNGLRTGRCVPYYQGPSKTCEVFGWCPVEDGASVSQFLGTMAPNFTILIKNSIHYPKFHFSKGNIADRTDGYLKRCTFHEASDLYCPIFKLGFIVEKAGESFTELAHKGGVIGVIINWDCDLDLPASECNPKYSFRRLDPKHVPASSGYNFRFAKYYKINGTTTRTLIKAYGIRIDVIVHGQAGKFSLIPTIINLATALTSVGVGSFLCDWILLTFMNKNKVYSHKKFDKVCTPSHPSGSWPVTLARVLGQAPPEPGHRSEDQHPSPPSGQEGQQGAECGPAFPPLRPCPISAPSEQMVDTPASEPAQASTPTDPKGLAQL
From the text: (§1) Values were normalized to the maximal efficacy measured individually for each probe and represent the mean of three independent experiments.
(§2) We constructed human and murine P2X-NeonGreen-Calflux-nLuc probes wherein the DNA sequence encoding the seven human or mouse P2X subunits are individually fused in C-terminal to the calflux calcium sensor sandwiched in between the nanoluciferase and mNeonGreen (FIG. 11 left panel).

[3] = target: T3, mP2X4 (Mus musculus, UniProt Q9JJX6); experiment: mP2X4-NeonGreen-Calflux-nLuc BRET probe in HEK293T cells; details: FIG. 11
T3 construct: expressed in transfected cells; host or cells: HEK293T
T3 sequence (Q9JJX6 1-388): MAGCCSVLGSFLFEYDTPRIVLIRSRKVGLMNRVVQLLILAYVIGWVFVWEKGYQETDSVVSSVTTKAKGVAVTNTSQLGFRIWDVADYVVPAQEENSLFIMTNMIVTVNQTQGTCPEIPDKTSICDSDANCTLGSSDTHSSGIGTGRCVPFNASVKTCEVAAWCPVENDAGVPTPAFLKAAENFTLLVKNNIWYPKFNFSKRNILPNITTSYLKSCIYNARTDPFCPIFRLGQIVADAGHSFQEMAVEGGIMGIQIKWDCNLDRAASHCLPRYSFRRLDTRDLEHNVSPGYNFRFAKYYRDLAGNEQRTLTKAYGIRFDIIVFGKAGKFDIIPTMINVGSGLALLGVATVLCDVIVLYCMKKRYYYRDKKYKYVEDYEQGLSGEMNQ
From the text: as §1, §2

[4] = target: T4, hP2X5 (Homo sapiens, UniProt Q93086); experiment: hP2X5-NeonGreen-Calflux-nLuc BRET probe in HEK293T cells; details: read-out: EC50 of activation of hP2X5 probe
T4 construct: expressed in transfected cells; host or cells: HEK293T
T4 sequence (Q93086 whole entry): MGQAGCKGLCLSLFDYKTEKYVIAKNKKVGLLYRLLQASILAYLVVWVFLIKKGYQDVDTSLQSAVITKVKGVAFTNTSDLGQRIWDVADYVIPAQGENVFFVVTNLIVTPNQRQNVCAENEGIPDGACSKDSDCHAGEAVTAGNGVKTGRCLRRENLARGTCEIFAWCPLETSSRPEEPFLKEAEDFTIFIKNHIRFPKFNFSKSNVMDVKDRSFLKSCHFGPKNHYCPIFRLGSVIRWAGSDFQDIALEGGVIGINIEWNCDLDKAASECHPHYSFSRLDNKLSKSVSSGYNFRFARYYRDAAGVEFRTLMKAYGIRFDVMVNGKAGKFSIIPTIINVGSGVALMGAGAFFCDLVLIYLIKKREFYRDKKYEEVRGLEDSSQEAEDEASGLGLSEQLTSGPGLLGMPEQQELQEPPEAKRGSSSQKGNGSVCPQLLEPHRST
From the text: as §1, §2

[5] = target: T5, hP2X4 (Homo sapiens, UniProt Q99571); experiment: hP2X4-NeonGreen-Calflux-nLuc BRET probe in HEK293T cells; details: read-out: EC50 of activation of hP2X4 probe
T5 construct: expressed in transfected cells; host or cells: HEK293T
T5 sequence (Q99571 1-388): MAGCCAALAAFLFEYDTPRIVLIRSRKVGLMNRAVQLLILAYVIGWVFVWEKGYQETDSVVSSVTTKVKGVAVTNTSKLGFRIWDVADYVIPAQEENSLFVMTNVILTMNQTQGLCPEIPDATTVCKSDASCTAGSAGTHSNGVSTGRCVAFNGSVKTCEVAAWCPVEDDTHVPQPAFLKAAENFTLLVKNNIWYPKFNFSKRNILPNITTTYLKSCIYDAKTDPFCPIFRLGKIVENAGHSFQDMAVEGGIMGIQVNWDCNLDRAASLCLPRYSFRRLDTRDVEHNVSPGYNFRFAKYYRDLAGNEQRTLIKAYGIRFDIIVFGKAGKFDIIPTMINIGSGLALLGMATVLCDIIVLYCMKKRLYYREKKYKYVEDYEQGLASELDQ
From the text: as §1, §2

[6] = target: T6, TRPV1 ion channel (Homo sapiens, UniProt Q8NER1); experiment: mNeonGreen-Calflux-nLuc-hTRPV1 BRET biosensor in HEK293T cells; details: kinetic measurement, FIG. 8A
T6 construct: expressed in transfected cells; host or cells: HEK293T
T6 sequence (Q8NER1 whole entry): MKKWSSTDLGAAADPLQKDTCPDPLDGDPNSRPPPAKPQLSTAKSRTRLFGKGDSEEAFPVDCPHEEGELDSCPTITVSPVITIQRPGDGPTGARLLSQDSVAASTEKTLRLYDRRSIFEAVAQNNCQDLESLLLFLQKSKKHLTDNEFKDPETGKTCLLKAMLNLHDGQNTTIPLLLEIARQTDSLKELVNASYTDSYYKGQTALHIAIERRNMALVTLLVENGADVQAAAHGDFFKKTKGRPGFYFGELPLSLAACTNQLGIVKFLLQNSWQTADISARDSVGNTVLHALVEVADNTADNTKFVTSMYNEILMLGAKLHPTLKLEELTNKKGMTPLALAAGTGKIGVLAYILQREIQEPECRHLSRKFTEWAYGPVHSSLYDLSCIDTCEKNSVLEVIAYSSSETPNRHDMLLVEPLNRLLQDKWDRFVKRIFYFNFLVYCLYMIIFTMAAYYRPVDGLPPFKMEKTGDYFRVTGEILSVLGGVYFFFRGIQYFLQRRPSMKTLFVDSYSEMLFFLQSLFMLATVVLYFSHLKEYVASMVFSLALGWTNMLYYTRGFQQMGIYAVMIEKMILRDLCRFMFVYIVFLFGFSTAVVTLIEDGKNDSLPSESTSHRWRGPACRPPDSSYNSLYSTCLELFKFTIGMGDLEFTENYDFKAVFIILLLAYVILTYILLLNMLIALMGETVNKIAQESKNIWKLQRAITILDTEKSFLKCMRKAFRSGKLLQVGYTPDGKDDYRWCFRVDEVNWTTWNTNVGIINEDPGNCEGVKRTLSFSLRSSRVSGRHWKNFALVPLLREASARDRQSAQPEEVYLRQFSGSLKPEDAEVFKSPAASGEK

[7] = target: T7, P2X2 (Rattus norvegicus, UniProt P49653); experiment: rP2X2-nLuc-Calflux-YFP BRET probe in HEK293T cells; details: read-out: EC50 of activation of P2X2-NLuc-CalFlux-YFP probe
T7 construct: expressed in transfected cells; host or cells: HEK293T
T7 sequence (P49653 1-472): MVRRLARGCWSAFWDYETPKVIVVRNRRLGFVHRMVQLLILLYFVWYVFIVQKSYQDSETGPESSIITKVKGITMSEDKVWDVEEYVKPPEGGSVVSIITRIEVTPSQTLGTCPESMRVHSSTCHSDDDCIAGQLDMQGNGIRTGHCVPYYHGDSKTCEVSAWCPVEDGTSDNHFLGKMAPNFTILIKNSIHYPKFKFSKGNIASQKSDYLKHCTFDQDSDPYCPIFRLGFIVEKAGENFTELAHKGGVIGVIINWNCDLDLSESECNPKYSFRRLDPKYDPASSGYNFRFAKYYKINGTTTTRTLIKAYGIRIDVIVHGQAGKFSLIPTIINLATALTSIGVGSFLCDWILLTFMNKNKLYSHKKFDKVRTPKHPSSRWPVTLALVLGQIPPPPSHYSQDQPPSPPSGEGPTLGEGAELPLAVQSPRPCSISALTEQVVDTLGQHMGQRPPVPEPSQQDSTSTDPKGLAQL

[8] = target: T8, GABARho1 (GABA receptor) (Homo sapiens, UniProt P24046); experiment: YPetCI BRET sensor inserted in GABARho1 subunit; details: with or without untagged GABARho1 subunit, FIG. 13G
T8 construct: expressed in transfected cells; host or cells: HEK cells are stated only for the free probe
T8 sequence (P24046 22-479): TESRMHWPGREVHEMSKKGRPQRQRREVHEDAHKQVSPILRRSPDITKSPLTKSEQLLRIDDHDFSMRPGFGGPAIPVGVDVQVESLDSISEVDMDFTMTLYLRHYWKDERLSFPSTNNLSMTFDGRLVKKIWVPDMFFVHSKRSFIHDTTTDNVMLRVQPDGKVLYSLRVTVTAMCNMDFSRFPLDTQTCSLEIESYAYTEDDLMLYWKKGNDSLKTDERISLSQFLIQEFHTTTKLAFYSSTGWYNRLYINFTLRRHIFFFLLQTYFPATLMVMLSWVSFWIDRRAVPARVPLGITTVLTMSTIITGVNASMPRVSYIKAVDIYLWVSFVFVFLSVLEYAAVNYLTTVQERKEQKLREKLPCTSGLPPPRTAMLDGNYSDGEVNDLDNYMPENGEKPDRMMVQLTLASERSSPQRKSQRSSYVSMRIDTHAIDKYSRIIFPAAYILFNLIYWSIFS
From the text: FIG. 13: Biosensors allowing to track Cys-loop receptor family activity. Insertion of NG-CF-NL or NL-CF-YFP probes in the second intracellular loop of cationic receptors (A) allows to track activity of nicotinic (B) or serotonin receptors (C). A BRET probe called YPetCI was also developed to sense intracellular anionic flux (D and F). When inserted in the second intracellular loop of GABARho1 subunit this probe allows to track activity of the GABA receptor (G).
We also developed a BRET probe allowing to sense anionic flux by fusing the cDNA of a chloride sensitive variant of YFP (YFP Chlore or YPetCI) to the cDNA of nLuc (FIG. 13D). When expressed in HEK cells this probe is able to detect the anionic influx generated by VRAC channel opening following a hypotonic challenge (FIG. 13F). Based on this probe, we generated a biosensor allowing to measure the activity of the anionic GABA receptors. We inserted the cDNA of the YPetCI sensor in the second intracellular loop of the GABARho1 subunit (FIG. 13E).

[9] = target: T9, hP2X7 (Homo sapiens, UniProt Q99572); experiment: hP2X7-NeonGreen-Calflux-nLuc BRET probe in HEK293T cells; details: read-out: EC50 of activation of hP2X7 probe
T9 construct: expressed in transfected cells; host or cells: HEK293T
T9 sequence (Q99572 1-595): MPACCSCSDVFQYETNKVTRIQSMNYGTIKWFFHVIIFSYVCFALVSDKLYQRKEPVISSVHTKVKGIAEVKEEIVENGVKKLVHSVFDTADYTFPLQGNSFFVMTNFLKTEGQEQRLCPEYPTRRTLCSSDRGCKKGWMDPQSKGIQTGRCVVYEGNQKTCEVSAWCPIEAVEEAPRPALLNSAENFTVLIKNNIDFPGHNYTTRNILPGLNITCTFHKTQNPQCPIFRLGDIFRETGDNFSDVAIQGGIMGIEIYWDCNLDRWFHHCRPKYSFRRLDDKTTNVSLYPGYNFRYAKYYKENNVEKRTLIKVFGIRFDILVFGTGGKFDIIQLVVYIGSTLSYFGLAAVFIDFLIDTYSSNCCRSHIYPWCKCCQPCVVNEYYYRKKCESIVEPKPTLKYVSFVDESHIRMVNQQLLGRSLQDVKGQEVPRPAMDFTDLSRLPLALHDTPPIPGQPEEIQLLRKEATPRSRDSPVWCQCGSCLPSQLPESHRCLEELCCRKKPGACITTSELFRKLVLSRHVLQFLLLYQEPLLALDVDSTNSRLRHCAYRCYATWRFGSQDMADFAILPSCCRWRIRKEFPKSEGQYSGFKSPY
From the text: as §1, §2

T1 sequence (Q8NER1 whole entry): as the sequence (Q8NER1 whole entry) above

Question: Nc1ncnc2c1ncn2[C@@H]1O[C@H](COP(=O)(O)OP(=O)(O)OP(=O)(O)O)[C@@H](O)[C@H]1O [ATP] was tested. Which “change of BRET signal on stimulation” value [1] did it give?
Answer: does not respond

Question: What about the EC50 [2] of the same compound?
Answer: 1630 nM

Question: And the “modulation of basal BRET signal” value [3]?
Answer: modulated in a dose-dependent manner

Question: And the EC50 [4]?
Answer: 480 nM

Question: And the EC50 [5]?
Answer: 490 nM

Question: And the “change of basal BRET after exposure” value [6]?
Answer: only faintly and transiently increased

Question: And the EC50 [7]?
Answer: 888 ± 274 nM

Question: NCCCC(=O)O [GABA, γ-aminobutyric acid] was tested. Which “modulation of BRET signal” value [8] did it give?
Answer: modulated

Question: With BzATP as the compound, how does the EC50 [9] read?
Answer: 49000 nM
